Measured values from patent publication US10149887B2, “Peptides and peptidomimetics in combination with t cell activating and/or checkpoint inhibiting agents for cancer treatment” (CanBas Co., Ltd., priority 2015, dated 2018).
Square brackets hold non-standard residues; d marks the D form. Peptide text beside a SMILES is read from it. dPhe(F5) = N[C@H](Cc1c(F)c(F)c(F)c(F)c1F)C(=O)O; dBpa = N[C@H](Cc1ccc(C(=O)c2ccccc2)cc1)C(=O)O; dCha = N[C@H](CC1CCCCC1)C(=O)O

Columns and labels:
[1] = test system: CT26WT; assay: Analysis of tumor infiltrating lymphocytes in CT26WT tumors (flow cytometry); assay type: in vivo, mouse; settings: day 11
Experimental: CT26WT were subcutaneously inoculated into the left flank of female Balb/c mice. […] Then, tumors were extracted from mice on day 11, and digested with triple enzyme mix (collagenase, hyaluronidase and DNase) to obtain single cell suspension. The cells were treated with FcR blocker and stained with specific antibody for multi-color flow cytometry analysis including CD4, CD8, CD45, CD11b, Ly6G, Ly6C, F4/80, MHC class II and CD206. Quantitative data (FIG. 32) are shown as mean values with SEM (n=3-4 mice/group). *: p<0.05, **: p<0.01, n.s.: not significant (unpaired, 2-tailed student's t-test), as compaired with cells from vehicle-treated or PD-1-treated tumor.

[2] = In vivo half life in mouse serum (HPLC); settings: 40 mg/kg ip, read-out: Half-life after 40 mg/kg intra-peritoneal injection (converted)
[3] = test system: SK-OV-3; assay: G2 checkpoint abrogation by CBP501 combined with cis-platin, flow cytometry; assay type: cell-based; settings: SK-OV-3, ovary, hMLH1; cis-platin 3 μg/ml 3 hr, then 45 hr
Experimental: (§1) The medium was aspirated, fresh medium without these compounds was added and the cells were incubated for an additional 45 hr. The cells including floating cells were harvested using trypsin-EDTA solution, incubated with Krishan's solution and analyzed for DNA content by flow cytometry as previously described.

[4] = test system: HCT116; assay: as above; assay type: cell-based; settings: HCT116, colon, hMLH1; cis-platin 3 μg/ml 3 hr, then 45 hr
Experimental: as §1

[5] = test system: NCI-H520; assay: as above; assay type: cell-based; settings: NCI-H520, lung, SCC; cis-platin 3 μg/ml 3 hr, then 45 hr
Experimental: as §1

[6] = test system: SW900; assay: as above; assay type: cell-based; settings: SW900, lung, SCC; cis-platin 3 μg/ml 3 hr, then 45 hr
Experimental: as §1

[7] = test system: Panc1; assay: as above; assay type: cell-based; settings: Panc1, pancreas; cis-platin 3 μg/ml 3 hr, then 45 hr
Experimental: as §1

[8] = test system: HT-29; assay: as above; assay type: cell-based; settings: HT-29, colon; cis-platin 3 μg/ml 3 hr, then 45 hr
Experimental: as §1

[9] = test system: NCI-H226; assay: as above; assay type: cell-based; settings: NCI-H226, lung, SCC; cis-platin 3 μg/ml 3 hr, then 45 hr
Experimental: as §1

[10] = test system: DU-145; assay: as above; assay type: cell-based; settings: DU-145, prostate, MLH1; cis-platin 3 μg/ml 3 hr, then 45 hr
Experimental: as §1

[11] = test system: SW620; assay: as above; assay type: cell-based; settings: SW620, colon; cis-platin 3 μg/ml 3 hr, then 45 hr
Experimental: as §1

[12] = test system: MIAPaCa2 human pancreatic carcinoma cells; assay: Colony formation analysis of MIAPaCa2 cells; assay type: cell-based; settings: CBP501 10 μmM, cisplatin or oxaliplatin 1, 3 or 9 μg/ml, three hours, then 10 days
Experimental: Briefly, cells were plated at 300 cells/well in 6 well plates, incubated overnight, and treated with the compounds for three hours. The medium was changed and cultured for an additional 10 days. Cells were subsequently fixed with 70% methanol, stained with 0.1% crystal violet and visualized.

[13] = test system: HMGB1; assay: HMGB1 secretion from CT26WT cells (ELISA); assay type: cell-based, murine; settings: 20 μM CDDP with 0.5 μM CBP501, 45 min
Experimental: Secreted HMGB1 into the medium was collected at 24, 48 and 72 hours after treatment (n=3). Quantification of the secreted HMGB1 was conducted by HMGB1 ELISA kit II. Samples were compared by student's t-test. *P<0.05 **P<0.01, compared with untreated control cells, and ^†P<0.05, ^††P<0.01, compared with the corresponding CDDP alone.
(§2) After changing with fresh drug-free medium, cells were incubated for 24, 48, or 72 hours for Immunoblotting analysis of phospho-eIF2-alpha, for calreticulin analysis by FACS, or for HMGB1 ELISA.
The secreted HMGB1 to the medium was quantificated by HMGB1 ELISA kit II (SINO-TEST CORPORATION, kanagawa, Japan) according to manufacturer's instructions.

[14] = test system: phospho-eIF2-alpha; assay: CDDP-induced phosphorylation of eIF2-alpha in CT26WT cells (immunoblotting); assay type: cell-based, murine; settings: 10-20 uM CDDP with 0.5 μM CBP501, 45 min
Experimental: A day later, cells were collected and analyzed by immunoblotting using specific antibody against phospho-eIF2-alpha (n=8) (FIG. 22A) and the amount of relative Phospho-eIF2-alpha was quantitated (FIG. 22B). Samples were compared by student's t-test. *P<0.05 **P<0.01, compared with untreated cells, and ^†P<0.05, ^††P<0.01, compared with the corresponding CDDP alone.
as §2
Cells were lysed by incubating with a buffer [NaCl (100 mM), Tris-HCl (50 mM, pH 8.0), DTT (1 mM), NP40 (0.5% w/v) containing PhosSTOP Phosphatase Inhibitor Cocktail and Complete Proteinase Inhibitor Cocktail Tablets (Roche Life Science) each diluted to the manufacturer's specified concentrations] at 4° C. for 30 minutes and centrifuged (15 000 rpm, 4° C., 20 minutes). The supernatant (whole-cell lysate) was electrophoresed (SDS-PAGE), and transferred from the gel onto a polyvinylidene difluoride (PVDF) membrane (Millipore) by electroblotting. […] Images were recorded with a Luminescent Image Analyzer LAS-4000 system (Fujifilm) and quantified the band intensity with Multi Gauge software (Fujifilm).

[15] = test system: calreticulin; assay: Cell surface calreticulin exposure in CT26WT cells (FACS); assay type: cell-based, murine; settings: 10-20 uM CDDP with 0.5 μM CBP501, 45 min
Experimental: Two days later, the cells were collected and analyzed by FACS with specific calreticulin antibody and propidium iodide (n=3). Samples were compared by student's t-test. *P<0.05 **P<0.01, compared with untreated cells, and ^†P<0.05, ^††P<0.01, compared with the corresponding CDDP alone.
as §2
Cells were collected and washed with PBS, followed by fixation with PBS containing 0.25% PFA for 5 minutes. The fixed cells were washed twice with ice-cold PBS and treated on ice with anti-calreticulin antibody (abcam) diluted with PBS containing 2% FBS (1/200) for 30 minutes. The primary antibody were removed with twice PBS containing 2% FBS wash and treated with alexa488-condjugated secondary antibody diluted with PBS containing 2% FBS (1/500) for 30 minutes at RT. The secondary antibody were removed with twice PBS and treated on ice with propidium iodide (1 ug/ml) for more than 5 minutes, followed by FACS analysis using FACSCalibur.

[16] = Mouse serum treatment analysis (residual CBP501 by HPLC); assay type: in vitro ADME; settings: CBP501 10 mM, 37 degree

## N=C(N)NCCC[C@@H](NC(=O)[C@@H](CCCNC(=N)N)NC(=O)[C@@H](CCC(N)=O)NC(=O)[C@@H](CCCNC(=N)N)NC(=O)[C@@H](CCCNC(=N)N)NC(=O)[C@@H](CCCNC(=N)N)NC(=O)[C@@H](CC1CCCCC1)NC(=O)[C@@H](Cc1c(F)c(F)c(F)c(F)c1F)NC(=O)[C@@H](CO)NC(=O)[C@@H](Cc1c[nH]c2ccccc12)NC(=O)[C@@H](CO)NC(=O)[C@H](N)Cc1ccc(C(=O)c2ccccc2)cc1)C(=O)O [CBP501, (d-Bpa)(d-Ser)(d-Trp)(d-Ser)(d-Phe-2,3,4,5,6-F)(d-Cha)(d-Arg)(d-Arg)(d-Arg)(d-Gln)(d-Arg)(d-Arg)] (H-[dBpa][dS][dW][dS][dPhe(F5)][dCha][dR][dR][dR][dQ][dR][dR]-OH; N-terminus and C-terminus assumed)
[1]; CDDP 4 mg/kg + CBP501 6 mg/kg + anti-PD1 400 ug/mouse
  CD8 (=CD45+CD8+) infiltration at tumor site, combined with CDDP and anti-PD1 antibody: statistically significant
[1]; CDDP 4 mg/kg i.v. + CBP501 6 mg/kg i.v.
  CD8 (=CD45+CD8+) infiltration at tumor site, combined with CDDP: tended to increase
[1]; combined with CDDP or CDDP plus anti-PD1 antibody
  M2 macrophages (=F4/80+CD206+) in tumor: decreased M2 macrophages
[2]
  half-life: 3 h
[3]
  G2 checkpoint abrogating dose of CBP501, cis-platin: 50 µM
[4]
  G2 checkpoint abrogating dose of CBP501, cis-platin: <2 µM
[5]
  G2 checkpoint abrogating dose of CBP501, cis-platin: >10 µM
[6]
  G2 checkpoint abrogating dose of CBP501, cis-platin: >10 µM
[7]
  G2 checkpoint abrogating dose of CBP501, cis-platin: >10 µM
[8]
  G2 checkpoint abrogating dose of CBP501, cis-platin: <2 µM
[9]
  G2 checkpoint abrogating dose of CBP501, cis-platin: 0.4 µM
[10]
  G2 checkpoint abrogating dose of CBP501, cis-platin: 0.4 µM
[11]
  G2 checkpoint abrogating dose of CBP501, cis-platin: >10 µM
[12]
  Enhancement of cyto-toxic activity of cisplatin and oxaliplatin, colony formation: enhanced the cyto-toxic activity of both cisplatin and oxaliplatin
[13]
  HMGB1 release, CDDP combined with CBP501 vs CDDP alone: about 2 times
[14]
  CDDP-induced phosphorylation of eIF2-alpha: augmented
[15]
  Calreticulin exposure to the cell surface: Positive effect
[16]
  Residual peptide after 1 hr mouse serum treatment (Mouse serum treatment analysis): >90%
